The record followed here is patent US4360595A, “Fermentation process for producing anandimycin” (Bristol-Myers Company, priority 1981, dated 1982).

The subject of series [1] is E. coli 15119. As to the kind of experiment: in vitro MIC, standard tube dilution procedure. It is filed as cell-based. Particulars: Escherichia coli; E. coli 15119; read-out: Minimum Inhibitory Concentration. The protocol:
(§1) The in vitro minimum inhibitory concentrations (MIC) of anandimycin were determined against a variety of microorganisms using the standard tube dilution procedure.

Series [2] has as its system E. coli 20341-1. Description: in vitro MIC, standard tube dilution procedure. Type of series: cell-based. The conditions noted are these: Escherichia coli, 203411; E. coli 20341-1; read-out: Minimum Inhibitory Concentration. The protocol:
as §1

In series [3] the test system is Ent. cloacae 9659. As to the kind of experiment: in vitro MIC, standard tube dilution procedure. It is filed as cell-based. The conditions noted are these: Enterobacter cloacae; Ent. cloacae 9659; read-out: Minimum Inhibitory Concentration. The method, then: as §1
The subject of series [4] is K. pneumoniae 15130. Description: in vitro MIC, standard tube dilution procedure. The conditions noted are these: Klebsiella pneumoniae; K. pneumoniae 15130; read-out: Minimum Inhibitory Concentration. It is filed as cell-based. The protocol:
as §1

Series [5] concerns Pr. mirabilis 9900. Description: in vitro MIC, standard tube dilution procedure. It is filed as cell-based. The conditions noted are these: Proteus mirabilis; Pr. mirabilis 9900; read-out: Minimum Inhibitory Concentration. The protocol: as §1
Series [6] deals with Pr. vulgaris 21559. As to the kind of experiment: in vitro MIC, standard tube dilution procedure. It is filed as cell-based. The conditions noted are these: Proteus vulgaris; Pr. vulgaris 21559; read-out: Minimum Inhibitory Concentration. The protocol:
as §1

In series [7] the test system is Ps. aeruginosa 9843A. Description: in vitro MIC, standard tube dilution procedure. Type of series: cell-based. The conditions noted are these: Pseudomonas aeruginosa; Ps. aeruginosa 9843A; read-out: Minimum Inhibitory Concentration. The method, then:
as §1

Series [8] concerns Ser. marcescens 20019. Description: in vitro MIC, standard tube dilution procedure. Type of series: cell-based. Particulars: Serratia marcescens; Ser. marcescens 20019; read-out: Minimum Inhibitory Concentration. The method, then: as §1
Series [9] concerns Staph. aureus (penicillin-resistant) 9606. As to the kind of experiment: in vitro MIC, standard tube dilution procedure. Particulars: Staphylococcus aureus, read-out: Minimum Inhibitory Concentration. It is filed as cell-based. The protocol: as §1
The test system of series [10] is Staph. aureus 9587. Description: in vitro MIC, standard tube dilution procedure. Type of series: cell-based. The conditions noted are these: Staphylococcus aureus; Staph. aureus 9587; read-out: Minimum Inhibitory Concentration. The protocol: as §1
The subject of series [11] is Str. faecalis 20,588. Description: in vitro MIC, standard tube dilution procedure. It is filed as cell-based. Particulars: Enterococcus faecalis; Str. faecalis 20,588; read-out: Minimum Inhibitory Concentration. The method, then:
as §1

The subject of series [12] is Str. pneumoniae 9585. Description: in vitro MIC, standard tube dilution procedure. Type of series: cell-based. Particulars: Streptococcus pneumoniae; Str. pneumoniae 9585; read-out: Minimum Inhibitory Concentration. The method, then: as §1
In series [13] the test system is Str. pyogenes 9604. As to the kind of experiment: in vitro MIC, standard tube dilution procedure. Type of series: cell-based. The conditions noted are these: Streptococcus pyogenes; Str. pyogenes 9604; read-out: Minimum Inhibitory Concentration. The protocol:
as §1

The nature of series [14]: solubility in organic solvents (trituration, chromatography). It is filed as physicochemical. Particulars: solvents for (preparative) chromatography. From the text:
The solids obtained from extraction of the whole broth are next washed with diethyl ether to remove any lard oils and antifoams used in the fermentation. […] To remedy this problem a simple organic solvent trituration scheme was developed which effects a gross separation of the yellow pigments and another class of antitumor agents produced by strain C-22,437 (rachelmycin) from anandimycin on the basis of differential solubility. […] The first step involves trituration of the extraction solids with acetone. The resulting filtrate contains another antitumor substance which is active in the lysogenic bacteria induction assay and the P388 mouse tumor system (rachelmycin). The insoluble solid from the acetone trituration contains the yellow pigments along with a complex of anandimycin and another similar compound. The second phase of the process involves trituration with a ternary organic solvent system 40:30:30(^v/v) chloroform:methanol:tetrahydrofuran. The soluble fraction contains the yellow pigments. […] Substantially pure anandimycin is separated from the enriched mixture using high pressure liquid chromatography on silica gel as described in more detail below.
The analytical solvent system routinely used is hexane:ethyl acetate:isopropanol (30:70:3^v /v) along with 0.1 to 0.4 part water depending on the relative activity state of the silica gel surface in the column being used. If tailing effects are observed, then typically one increases the water content of the solvent system within the 0.1-0.4 part range to improve peak symmetry, thereby permitting a more quantitative analysis.
The preparative solvent system is ethyl acetate:isopropanol:water (87:13:0.5^v /v). […] A shave-recycle method involves increasing the effective silica gel column length through the employment of continuous multiple pass chromatography of the anandimycin-component II band. […] Initial chromatography gave anandimycin enriched to 70-85% purity. Accumulated solids are rechromatographed to yield material of >90% purity. […]

Series [15] is described as follows: biological activity (in words).
Series [16] concerns E. coli. Description: lysogenic bacterial induction (ILB) assay. Type of series: cell-based. An excerpt:
Analytical high pressure liquid chromatography, Bacillus subtilis zone of inhibition, lysogenic bacterial induction and P388 mouse tumor assays are used throughout the above-described separation processes to monitor relative levels of anandimycin and co-produced substances.

Series [17] has as its system P-388 leukemia. As to the kind of experiment: transplantable mouse tumor P-388 leukemia. It is filed as in vivo, mouse (CDF1 female mice). Particulars: filtrate of acetone trituration. The method, then:
Anandimycin was also tested against the transplantable mouse tumor P-388 leukemia. The methodology used generally followed the protocols of the National Cancer Institute (Cancer Chemotherapy Rep., Part 3, 3, 1-103 (1972). The essential experimental details are given at the bottom of the following table. Two different dose regimens are tested: single dose on day 1 and three doses given on days 1, 5 and 9. The optimal dose was 64 mg/kg. single dose.
Tumor inoculum: 10^6 ascites cells implanted
Host: CDF1 .female. mice
Evaluation: MST = median survival
Effect: % T/C = (MST treated/MST control) ×
Criteria: % T/C ≥ 125 considered significant antitumor
Tox: […] 4/6 mice alive on day 5
AWC = average weight gain (treatedcontrol) in grams (on day 4)

A short description of series [18]: antimicrobial / antibiotic activity (in words). Type of series: cell-based.

≈ marks a conversion by molar mass, not a printed value. Entries after “also recorded” stand apart in the source; their conditions may differ.

Take `COc1cc2c(oc(=O)c3cc(O)cc(OC)c32)c2c(C3OC(C(C)O)C(O)C3O)ccc(O)c12` (stereo not drawn) [Component II]: the MIC in series [1], in [2], in series [3], in [4], in series [5] and in [6] was over 63 µg/mL throughout. In addition, the MIC was over 63 µg/mL in series [7]; over 63 µg/mL in series [8]; 0.5 µg/mL (≈ 1.03 µM) in series [9]; 0.13 µg/mL (≈ 0.268 µM) in [10]; 0.13 µg/mL (≈ 0.268 µM) in series [11]; 0.25 µg/mL (≈ 0.516 µM) in series [12]. Further, the MIC in [13] is 0.5 µg/mL (≈ 1.03 µM). Besides, the “solubility in chromatography solvents” value in [14] is given as “poor solubility”. For the same compound, in series [15], the biological activity result was “biologically inactive”.

In the case of `COc1c(O)c2c(c3cc(C(=O)N4CCc5c4c(O)c(OC)c4[nH]c(C(=O)N6CC7CC78C6=CC(=O)c6[nH]cc(C)c68)cc54)[nH]c13)CCN2C(N)=O` (stereo not drawn) [rachelmycin, reference compound], in series [16], the “lysogenic bacterial induction activity” value is “active; also recorded: possesses both antibiotic and lysogenic bacterial induction activity”. The “activity in the P388 mouse tumor system” value in series [17] was “active”. The “antimicrobial / antibiotic activity” value in [18] is “possesses both antibiotic and lysogenic bacterial induction activity”.
